Experimental data reported in US20090239839A1, “RECEPTOR ANTAGONIST” (TAKEDA PHARMACEUTICAL COMPANY LIMITED, priority 2003, published 2009).
Structures can show the parent of a compound that is named as a salt.

Key:
human-type OT7T022 [1] = biological target: T1, human-type OT7T022 (Homo sapiens, UniProt Q9GZQ6); assay: Binding inhibiting activity using human-type OT7T022-expressing CHO cell; details: 125I-labeled Y-RFRP-3 100 pM, membrane fraction, room temperature 1.5 hours; read-out: IC50 value (binding inhibiting rate)
T1 construct: expressed in transfected cells; host or cells: CHO cells (membrane fraction)
T1 sequence (Q9GZQ6 whole entry): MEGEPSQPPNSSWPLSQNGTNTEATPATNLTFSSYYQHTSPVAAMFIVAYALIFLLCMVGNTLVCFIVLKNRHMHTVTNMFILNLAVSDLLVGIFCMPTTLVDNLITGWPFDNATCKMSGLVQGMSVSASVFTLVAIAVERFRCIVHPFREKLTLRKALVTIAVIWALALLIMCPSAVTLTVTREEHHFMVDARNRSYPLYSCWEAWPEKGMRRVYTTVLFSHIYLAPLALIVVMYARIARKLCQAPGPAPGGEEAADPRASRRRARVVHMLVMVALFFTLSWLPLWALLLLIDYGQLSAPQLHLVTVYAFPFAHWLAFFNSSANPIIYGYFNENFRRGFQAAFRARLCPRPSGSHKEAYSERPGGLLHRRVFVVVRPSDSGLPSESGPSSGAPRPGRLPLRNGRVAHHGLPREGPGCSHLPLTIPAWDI
Experimental: Assessment of Binding Inhibiting Activity of Test Compound Using Human-Type OT7T022-Expressing CHO Cell
Twenty μm of a peptide (Y-RFRP-3) (sequence: Tyr-Val-Pro-Asn-Leu-Pro-Gln-Arg-Phe-amide) (0.1 mM) in which a Tyr residue had been added to a N-terminus of hRFRP-3-8 (sequence: Val-Pro-Asn-Leu-Pro-Gln-Arg-Phe-amide) having binding inhibiting activity equivalent to that of endogenous human-type RFRP-3 (hRFRP-3-28) for human-type OT7T022-expressing CHO cell and 10 μl of distilled water were mixed, 20 μl of a lactoperoxidase solution (Sigma, prepared using 0.1 M HEPES-NaOH, pH 7.0 in 10 μg/mL), 10 μl of Iodine-125 (Amersham, IMS-30, 74 MBq), and 20 μl of 0.005% hydrogen peroxide (Wako Pure Chemical Industries, Ltd.) were successively mixed therein, the mixture was allowed to stand at room temperature for 10 minutes, 600 μl of 0.1% TFA-water was added, this was separated by reverse phase HPLC, a peak of the labeled form was collected, an equivalent amount of a buffer for a binding test (50 mM TrisHCl (pH 7.5), 0.1% BSA, 5 mM EDTA, 0.5 mM PMSF, 20 μg/mL leupeptin, 0.1 μg/mL pepstatin A, […]) was added, and this was immediately stored on ice. A part thereof was 1/100 diluted, radioactivity was measured with a γ-counter, and the remaining authentic product was distributed, which was stored at −30° C.
To a 96-well microplate were added 1 μg of a membrane fraction, a compound and Y-RFRP-3 labeled with ^125I, which had been diluted with a reaction buffer (50 mM Tris-HCl, 5 mM EDTA, 0.1% BSA, 0.5 mM PMSF, 20 μg/ml leupeptin, 0.1 μg/ml pepstatin A, 4 μg/ml E-64, 10 mM MgCl2, pH 7.5), to 100 pM to react them at room temperature for 1.5 hours. For measuring non-specific binding, non-labeled Y-RFRP-3 was further added to […]. Then, a membrane fraction was transferred to a unifilter GF/C (Perkin Elmer) by filtering the reaction mixture using a cell harvester (Perkin Elmer), and this was washed with a cooled 50 mM Tris buffer (pH 7.5) five times. The filter was dried, Microsinti (Packard) was added to the filter, and radioactivity was measured with Topcount (Packard).
A binding inhibiting rate (IC50 value) of a test compound is shown in [Table 1].

human-type OT7T022 [2] = biological target: T1, human-type OT7T022; assay: Antagonist activity in cAMP production inhibiting test system using human-type OT7T022-expressing CHO cell; type: cell-based; details: agonist human-type RFRP-3-8 20 nM + forskolin 2 μM, intracellular cAMP amount
Experimental: Test of Antagonist Activity of Compound in Camp Production Inhibiting Test System Using Human-Type OT7T022-Expressing CHO Cell
Antagonist activity of a test compound was measured in an intracellular cAMP production inhibiting test system of a CHO cell expressing human-type OT7T022. In the cAMP production inhibiting test, as an assay buffer, a Hanks' balanced salt solution (Gibco) to which 20 mM HEPES pH 7.4, 0.1% bovine serum albumin, and 0.2 mM 3-isobutyl-1-methylxanthine (Sigma) had been added, was used. A sample compound was adjusted with an assay buffer so that the final concentration became 10^−5M, 10^−6M, 10^−7M, 10^−8M, or 10^−10M. An agonist: human-type RFRP-3-8 (Val-Pro-Asn-Leu-Pro-Gln-Arg-Phe-amide) was diluted with an assay buffer obtained by adding 4 μM (final concentration 2 μM) forscoline to 40 nM (final concentration 20 nM). A human-type OT7T022-expressing CHO cell was passaged on a 96-well plate at 4×10^4/well, and cultured at 37° C., 5% CO2 and 95% air for one day. The plate which had been cultured for one day was washed with an assay buffer (150 μl) two times and, after 30 minutes, this was cultured for 30 minutes at 37° C. and 100% air. […] An intracellular cAMP amount was measured according to a protocol of the present kit using cAMP-Screen™ system (ABI). […]

rat-type OT7T022 = biological target: T2, rat-type OT7T022 (Rattus norvegicus, UniProt Q9EP86); assay: Binding inhibiting activity using rat-type OT7T022-expressing CHO cell membrane fraction; details: iodine-labeled Y-RFRP-3 100 pM, membrane fraction 0.75 μg/well
T2 construct: expressed in transfected cells; host or cells: CHO cells (membrane fraction)
T2 sequence (Q9EP86 whole entry): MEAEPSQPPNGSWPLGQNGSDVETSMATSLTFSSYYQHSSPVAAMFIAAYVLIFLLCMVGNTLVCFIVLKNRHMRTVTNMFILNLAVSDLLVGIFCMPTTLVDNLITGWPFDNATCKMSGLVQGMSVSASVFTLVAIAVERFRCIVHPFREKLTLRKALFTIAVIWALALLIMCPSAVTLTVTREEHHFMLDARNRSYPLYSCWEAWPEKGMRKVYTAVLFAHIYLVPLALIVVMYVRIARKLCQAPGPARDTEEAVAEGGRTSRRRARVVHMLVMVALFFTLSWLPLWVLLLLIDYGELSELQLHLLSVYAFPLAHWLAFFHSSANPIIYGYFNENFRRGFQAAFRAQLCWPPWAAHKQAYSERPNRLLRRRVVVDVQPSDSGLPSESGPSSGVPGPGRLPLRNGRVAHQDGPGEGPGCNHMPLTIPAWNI
Experimental: Assessment of Binding Inhibiting Activity of Test Compound Using Rat-Type OT7T022-Expressing CHO Cell
A flask in which a rat-type OT7T022-expressing CHO cell had been cultured was washed with 5 mM EDTA/PBS, cells were peeled with 5 mM EDTA/PBS, and cells were recovered by centrifugation, suspended in 25 mL of a buffer for preparing a membrane fraction (50 mM Tris-HCl, pH 7.5, 5 mM EDTA, 0.5 mM PMSF (manufactured by Wako Pure Chemical Industries, Ltd.), […] (manufactured by Peptide Laboratory), 0.1 μg/mL pepstatin A (manufactured by Peptide Laboratory), 4 μg/mL E-64 (manufactured by Peptide Laboratory)), and homogenized on an ice using Polytron (12,000 rpm, 15 seconds×3 times). This was centrifuged in a high speed cooling centrifuge at 4° C. and 1,000 g for 10 minutes, and the supernatant was recovered. 25 mL of a buffer for preparing a membrane fraction was added to precipitates, and the supernatant was recovered by the same procedure. These supernatants were combined, subjected to a cell strainer, dispensed into tubes for a supercentrifuge, and centrifuged at 4° C. and 100,000 g for 1 hour. The pellet was suspended in a small amount of a buffer for preparing a membrane fraction, this was suspended using a Teflon (registered trade mark) homogenizer, a protein amount was measured using a part, and the remaining was dispensed, and stored at −80° C.
Using an assay buffer (50 mM Tris-HCl, pH 7.5, 5 mM EDTA, 0.5 mM PMSF, 20 μg/mL leupeptin, 0.1 μg/mL pepstatin A, 4 μg/mL E-64, 0.1% bovine serum albumin, 10 mM MgCl2), a membrane fraction of a rat-type OT7T022-expressing CHO cell was diluted to the final concentration of 0.75 μg/well, and iodine-labeled Y-RFRP-3 was diluted to the final concentration of 100 pM. Regarding a sample compound, a 10^−2M or 10^−3M stock solution was diluted with an assay buffer so that the final concentration became 10^−5M, 10^−6M, 10^−7M, 10^−8M, 10^−9M, 10^−10M or 10^−11M. For non-specific binding, hRFRP-3-8 having the final concentration of 10^−5M was prepared. Using a polypropylene 96-well plate, a prepared sample solution, a non-specific binding solution, and 50 μl of an assay buffer for total binding were dispensed, 25 μl of an iodine-labeled form diluent was added, the mixture was stirred, 25 μl of a rat-type OT7T022-expressing CHO cell membrane fraction solution was dispensed, and this was stirred, and incubated at room temperature for 1.5 hours. This was transferred to a unifilter (Perkin Elmer) pre-wetted with a washing buffer (50 mM Tris-HCl, pH 7.5) using a harvester for a 96-well plate (Packard), and this was washed with a washing buffer six times, and sufficiently dried. 50 μl of Microscinti O (Packard) was dispensed, radioactivity was measured with Top Count (Packard), and data were analyzed in a triplicate manner. Binding inhibiting activity (IC50 value) of a test compound for rat-type OT7T022 is shown in [Table 3].

Measured: IC50

COc1c(OCCCNCCCc2ccccc2)cccc1[C@H]1O[C@H](CC(=O)NCc2ccccc2F)C(=O)N(CC(C)(C)C)c2ccc(Cl)cc21 (relative stereo) [Example 3, 2-(3,5-trans-7-Chloro-1-(2,2-dimethylpropyl)-5-{2-methoxy-3-[3-(3-phenylpropylamino)propoxy]phenyl}-2-oxo-1,2,3,5-tetrahydro-4,1-benzoxazepin-3-yl)-N-(2-fluorobenzyl)acetamide hydrochloride]
< 1 µM: all assays above
